Active and inactive are the calls of the source. The calls are words filed in the database; no cut-off is given here.
What was measured:
Mus musculus = assay: Toxicity in BALB/c nude mouse xenografted with human NCI-H460 cells assessed as bloody stool at 40 mg/kg/day administered qd; type: organism-based; conditions: in vivo
Aorta = assay: Antiangiogenic activity in Sprague-Dawley rat aortic ring at 0.2 ug/ml after 6 days by inverted microscopic analysis; type: functional, tissue-based
[1] = biological target: Vascular endothelial growth factor receptor 2 (Homo sapiens, UniProt P35968); assay: Binding affinity to VEGFR2 (unknown origin)
[2] = biological target: Tyrosine-protein kinase receptor UFO (Homo sapiens, UniProt P30530); assay: Binding affinity to AXL (unknown origin)
[3] = biological target: Fibroblast growth factor receptor 3 (Homo sapiens, UniProt P22607); assay: Binding affinity to FGFR3 (unknown origin)
[4] = biological target: Mast/stem cell growth factor receptor Kit (Homo sapiens, UniProt P10721); assay: Binding affinity to c-KIT (unknown origin)
[5] = biological target: T1, Tyrosine-protein kinase Lck (Homo sapiens, UniProt P06239); assay: Binding affinity to LCK (unknown origin)
Target sequence in this assay (P06239 whole entry): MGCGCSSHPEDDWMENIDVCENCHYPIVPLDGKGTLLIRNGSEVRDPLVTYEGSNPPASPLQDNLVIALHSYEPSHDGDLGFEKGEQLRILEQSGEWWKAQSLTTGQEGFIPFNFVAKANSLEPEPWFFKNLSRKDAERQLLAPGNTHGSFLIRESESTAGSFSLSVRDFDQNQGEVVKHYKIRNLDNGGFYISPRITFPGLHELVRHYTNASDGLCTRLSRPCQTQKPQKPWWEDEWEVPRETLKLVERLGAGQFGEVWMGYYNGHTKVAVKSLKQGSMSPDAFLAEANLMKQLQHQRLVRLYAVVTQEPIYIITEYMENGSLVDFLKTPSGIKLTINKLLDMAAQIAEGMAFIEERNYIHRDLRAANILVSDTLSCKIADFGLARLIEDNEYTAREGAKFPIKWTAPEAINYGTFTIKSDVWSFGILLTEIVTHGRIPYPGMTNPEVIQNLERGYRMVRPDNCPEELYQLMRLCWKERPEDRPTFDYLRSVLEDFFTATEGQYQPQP

[6] = biological target: Vascular endothelial growth factor receptor 1 (Homo sapiens, UniProt P17948); assay: Inhibition of VEGFR1 (unknown origin) at 1 uM relative to control
[7] = biological target: Tyrosine-protein kinase ABL2 (Homo sapiens, UniProt P42684); assay: Inhibition of ARG (unknown origin) at 1 uM relative to control
[8] = Antiproliferative activity against human MV411 cells after 48 hrs by MTT assay; type: functional, cell-based; conditions: MV4-11, 48 h
TT = assay: Antiproliferative activity against human TT cells pretreated for 72 hrs followed by compound-washout measured after 72 hrs by MTT assay; type: functional, cell-based
[9] = biological target: Tyrosine-protein kinase receptor UFO (Homo sapiens) (UniProt P30530); conditions: 1 uM
Description: Inhibition of AXL (unknown origin) at 1 uM relative to control

[10] = biological target: ALK tyrosine kinase receptor (Homo sapiens, UniProt Q9UM73); conditions: 1 uM
Description: Inhibition of ALK (unknown origin) at 1 uM relative to control

[11] = biological target: Tyrosine-protein kinase Fyn (Homo sapiens, UniProt P06241); conditions: 1 uM
Description: Inhibition of FYN (unknown origin) at 1 uM relative to control

[12] = biological target: T1, Tyrosine-protein kinase Lck; conditions: 1 uM
Target sequence in this assay (P06239 2-509 limits assumed): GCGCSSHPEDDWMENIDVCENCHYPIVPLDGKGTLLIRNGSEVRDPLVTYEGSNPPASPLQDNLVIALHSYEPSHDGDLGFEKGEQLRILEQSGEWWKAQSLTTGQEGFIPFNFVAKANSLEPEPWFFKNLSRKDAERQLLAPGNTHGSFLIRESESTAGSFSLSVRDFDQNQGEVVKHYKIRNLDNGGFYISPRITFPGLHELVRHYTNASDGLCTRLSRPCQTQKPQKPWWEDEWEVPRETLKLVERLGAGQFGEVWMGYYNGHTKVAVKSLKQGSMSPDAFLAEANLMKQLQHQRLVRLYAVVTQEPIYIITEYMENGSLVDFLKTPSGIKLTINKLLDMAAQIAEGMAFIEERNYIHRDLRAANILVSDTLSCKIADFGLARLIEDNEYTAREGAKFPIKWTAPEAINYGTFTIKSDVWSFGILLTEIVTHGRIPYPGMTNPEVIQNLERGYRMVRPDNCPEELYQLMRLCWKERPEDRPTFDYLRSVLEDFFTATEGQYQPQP
Description: Inhibition of LCK (unknown origin) at 1 uM relative to control

Sequence of Mast/stem cell growth factor receptor Kit (P10721 whole entry): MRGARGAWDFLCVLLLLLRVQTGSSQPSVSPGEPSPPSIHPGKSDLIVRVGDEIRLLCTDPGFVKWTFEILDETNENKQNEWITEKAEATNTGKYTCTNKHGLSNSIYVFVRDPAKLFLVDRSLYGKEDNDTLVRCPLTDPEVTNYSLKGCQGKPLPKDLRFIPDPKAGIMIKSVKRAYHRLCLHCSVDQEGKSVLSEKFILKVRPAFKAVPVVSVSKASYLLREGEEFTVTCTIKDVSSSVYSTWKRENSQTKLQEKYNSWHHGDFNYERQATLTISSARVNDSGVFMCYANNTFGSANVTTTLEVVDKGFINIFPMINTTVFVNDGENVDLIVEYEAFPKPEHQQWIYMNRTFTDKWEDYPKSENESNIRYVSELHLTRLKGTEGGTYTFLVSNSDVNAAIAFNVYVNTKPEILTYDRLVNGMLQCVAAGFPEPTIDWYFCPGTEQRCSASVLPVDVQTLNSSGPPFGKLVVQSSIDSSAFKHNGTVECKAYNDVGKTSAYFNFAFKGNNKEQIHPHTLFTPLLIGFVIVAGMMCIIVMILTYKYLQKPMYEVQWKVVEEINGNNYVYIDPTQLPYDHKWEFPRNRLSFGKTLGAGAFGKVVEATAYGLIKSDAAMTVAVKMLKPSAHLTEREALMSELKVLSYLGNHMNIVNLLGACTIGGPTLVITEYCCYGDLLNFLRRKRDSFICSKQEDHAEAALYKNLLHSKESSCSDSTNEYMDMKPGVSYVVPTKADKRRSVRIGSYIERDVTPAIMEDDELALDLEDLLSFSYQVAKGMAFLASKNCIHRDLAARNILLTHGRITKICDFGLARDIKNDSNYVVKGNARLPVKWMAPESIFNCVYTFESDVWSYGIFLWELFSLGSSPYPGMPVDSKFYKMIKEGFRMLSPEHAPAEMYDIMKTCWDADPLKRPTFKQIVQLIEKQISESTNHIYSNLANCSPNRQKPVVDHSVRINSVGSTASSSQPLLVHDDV
Sequence of Tyrosine-protein kinase ABL2 (P42684 whole entry): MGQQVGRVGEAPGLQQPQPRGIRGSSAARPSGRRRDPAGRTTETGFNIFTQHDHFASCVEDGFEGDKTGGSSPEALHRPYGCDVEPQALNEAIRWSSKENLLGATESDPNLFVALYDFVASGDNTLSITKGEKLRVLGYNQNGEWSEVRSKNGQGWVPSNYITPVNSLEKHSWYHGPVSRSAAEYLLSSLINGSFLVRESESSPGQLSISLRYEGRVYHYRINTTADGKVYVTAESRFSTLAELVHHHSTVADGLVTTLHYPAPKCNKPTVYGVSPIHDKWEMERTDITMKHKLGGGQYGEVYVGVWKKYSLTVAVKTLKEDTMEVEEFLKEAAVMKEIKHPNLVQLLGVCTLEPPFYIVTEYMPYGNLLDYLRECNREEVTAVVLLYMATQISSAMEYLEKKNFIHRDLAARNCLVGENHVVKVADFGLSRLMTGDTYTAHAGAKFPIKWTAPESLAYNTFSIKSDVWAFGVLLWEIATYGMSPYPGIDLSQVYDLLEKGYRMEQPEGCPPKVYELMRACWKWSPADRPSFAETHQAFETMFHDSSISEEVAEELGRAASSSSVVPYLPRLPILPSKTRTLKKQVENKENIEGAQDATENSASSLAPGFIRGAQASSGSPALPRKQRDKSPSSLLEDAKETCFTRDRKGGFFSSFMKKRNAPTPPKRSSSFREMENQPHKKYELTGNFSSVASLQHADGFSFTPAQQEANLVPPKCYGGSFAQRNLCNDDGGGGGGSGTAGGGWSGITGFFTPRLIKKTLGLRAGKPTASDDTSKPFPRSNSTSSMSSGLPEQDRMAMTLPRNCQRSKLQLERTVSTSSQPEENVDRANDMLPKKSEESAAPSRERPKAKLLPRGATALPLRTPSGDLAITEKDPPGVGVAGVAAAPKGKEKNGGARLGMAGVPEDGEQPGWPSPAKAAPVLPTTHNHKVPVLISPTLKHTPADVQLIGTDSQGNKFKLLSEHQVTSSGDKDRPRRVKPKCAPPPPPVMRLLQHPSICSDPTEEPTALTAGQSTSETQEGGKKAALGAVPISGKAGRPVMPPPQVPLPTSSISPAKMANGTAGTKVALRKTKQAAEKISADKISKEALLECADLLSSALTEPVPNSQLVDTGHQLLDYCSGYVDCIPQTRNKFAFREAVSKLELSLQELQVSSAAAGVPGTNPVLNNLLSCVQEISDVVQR
Sequence of ALK tyrosine kinase receptor (Q9UM73 19-1620 limits assumed): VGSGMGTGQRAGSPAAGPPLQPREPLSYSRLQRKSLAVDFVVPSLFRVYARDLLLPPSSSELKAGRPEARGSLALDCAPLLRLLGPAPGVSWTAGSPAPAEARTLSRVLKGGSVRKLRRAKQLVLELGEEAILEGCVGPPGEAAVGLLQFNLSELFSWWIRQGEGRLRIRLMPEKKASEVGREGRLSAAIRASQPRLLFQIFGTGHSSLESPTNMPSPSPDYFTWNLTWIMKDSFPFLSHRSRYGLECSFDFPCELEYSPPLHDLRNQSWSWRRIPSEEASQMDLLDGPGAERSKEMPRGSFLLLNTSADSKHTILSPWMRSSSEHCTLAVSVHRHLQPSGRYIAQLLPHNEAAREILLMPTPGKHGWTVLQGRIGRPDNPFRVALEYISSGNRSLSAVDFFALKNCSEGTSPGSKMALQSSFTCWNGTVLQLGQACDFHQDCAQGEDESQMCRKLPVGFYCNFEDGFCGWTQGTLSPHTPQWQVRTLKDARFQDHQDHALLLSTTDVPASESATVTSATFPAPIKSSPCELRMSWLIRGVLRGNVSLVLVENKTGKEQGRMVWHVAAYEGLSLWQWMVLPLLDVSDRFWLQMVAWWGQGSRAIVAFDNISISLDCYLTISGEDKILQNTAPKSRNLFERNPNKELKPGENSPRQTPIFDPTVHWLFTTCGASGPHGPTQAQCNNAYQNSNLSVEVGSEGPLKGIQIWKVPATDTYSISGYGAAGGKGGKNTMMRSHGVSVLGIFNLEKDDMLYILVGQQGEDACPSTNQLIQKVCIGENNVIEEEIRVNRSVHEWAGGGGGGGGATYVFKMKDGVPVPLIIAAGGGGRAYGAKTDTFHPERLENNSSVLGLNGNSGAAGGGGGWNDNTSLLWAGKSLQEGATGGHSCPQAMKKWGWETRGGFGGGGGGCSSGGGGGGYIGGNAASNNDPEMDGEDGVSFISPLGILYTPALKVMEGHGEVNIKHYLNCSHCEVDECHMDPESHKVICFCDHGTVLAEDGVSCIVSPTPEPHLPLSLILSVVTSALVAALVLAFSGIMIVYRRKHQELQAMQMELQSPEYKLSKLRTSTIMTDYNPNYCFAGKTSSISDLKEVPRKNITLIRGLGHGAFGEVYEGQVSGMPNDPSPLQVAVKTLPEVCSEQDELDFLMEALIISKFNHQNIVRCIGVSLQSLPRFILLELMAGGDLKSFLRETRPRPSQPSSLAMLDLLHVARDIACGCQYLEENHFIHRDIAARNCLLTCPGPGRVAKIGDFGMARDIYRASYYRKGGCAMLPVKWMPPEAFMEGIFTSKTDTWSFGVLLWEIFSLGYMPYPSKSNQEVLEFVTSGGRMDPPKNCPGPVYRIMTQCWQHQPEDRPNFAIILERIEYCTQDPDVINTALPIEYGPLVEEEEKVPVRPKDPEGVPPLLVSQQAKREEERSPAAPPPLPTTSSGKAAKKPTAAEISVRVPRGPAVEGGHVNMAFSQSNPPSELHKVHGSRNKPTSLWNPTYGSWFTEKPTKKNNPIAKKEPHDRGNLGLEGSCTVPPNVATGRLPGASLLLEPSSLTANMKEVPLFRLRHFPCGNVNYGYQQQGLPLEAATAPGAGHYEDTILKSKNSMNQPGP

## Cc1[nH]c(/C=C2\C(=O)Nc3ccc(F)cc32)c(C)c1NC(=O)CCN1CCN(C)CC1
Mus musculus
  Activity: Non-toxic
Aorta
  inhibition: Active
[1]
  Ki: 3.8 nM
[2]
  Ki: 63 nM
[3]
  Ki: 89 nM
[4]
  Ki: 200 nM
[5]
  Ki: 2000 nM
[6]
  inhibition: 52%
[7]
  inhibition: 76%
[8]
  IC50: 8 nM
TT
  IC50: 70 nM
[9]
  inhibition: 95%
[10]
  inhibition: 87%
[11]
  inhibition: 44%
[12]
  inhibition: 44%
